From the NIST ThermoML archive (doi:10.1016/j.jct.2019.04.021)
± gives the expanded uncertainty stated by the source.

Settings: 298 K; 101.33 kPa; Crystal; X-ray diffraction

mass density: 7060.5 ± 7.2 kg/m3
Compound: [O-2].[O-2].[O-2].[Pr+3].[Pr+3] [praseodymium oxide (Pr2O3)]
